assay: RP, Waters ACQUITY UPLC HSS T3, 100 × 2.1 mm, 1.8 µm, 30 °C, 0.3 mL/min, estimated dead time 0.73 min; A: water + 0.1% formic acid, pH 3; B: methanol + 0.1% formic acid, pH 3; gradient (min/%B) 0/0 6/0 56/100 60/100; conditions: stereoisomer not certain

| LC retention time [min] | Structure (SMILES) |
| --- | --- |
| 6.9 | CC(C)CCN [isopentylamine] |
| 18.1 | CC(C)C(O)(CC(=O)O)C(=O)O (configuration not stated) [isopropyl malic acid] |
| 31.5 | COc1cc(-c2oc3cc(O)cc(O)c3c(=O)c2OC2OC(CO)C(O)C(O)C2O)ccc1O (configuration not stated) [isorhamnetin 3-glucoside] |
| 31.7 | COc1cc(-c2oc3cc(O)cc(O)c3c(=O)c2OC2OC(COC3OC(C)C(O)C(O)C3O)C(O)C(O)C2O)ccc1O (configuration not stated) [isorhamnetin 3-rutinoside] |
| 37.1 | COc1cc(-c2oc3cc(O)cc(O)c3c(=O)c2O)ccc1O [isorhamnetin] |
| 33.7 | CCC=CCC1C(=O)CCC1CC(=O)O (configuration not stated) [jasmonic acid] |
| 31.4 | CC1OC(OCC2OC(Oc3c(-c4ccc(O)cc4)oc4cc(O)cc(O)c4c3=O)C(O)C(O)C2O)C(O)C(O)C1O (configuration not stated) [kaempferol 3-rutinoside] |
| 36.6 | O=c1c(O)c(-c2ccc(O)cc2)oc2cc(O)cc(O)c12 [kaempferol] |
| 58.3 | CC(C)=CCCC(C)C1CCC2(C)C3=C(CCC12C)C1(C)CCC(O)C(C)(C)C1CC3 (configuration not stated) [lanosterol] |
| 34.7 | COc1cc(-c2oc3cc(O)cc(O)c3c(=O)c2O)cc(O)c1O [laricitrin] |
| 60.2 | CCCCCCCCCCCCCCCCCCCCCCCC(=O)O [lignoceric acid] |
| 50.8 | C=CC(C)(CCC=C(C)C)OC(=O)c1ccccc1 (configuration not stated) [linalyl benzoate] |
| 53.6 | CCCCC/C=C\C/C=C\CCCCCCCC(=O)O [linoleic acid] |
| 34.7 | O=c1cc(-c2ccc(O)c(O)c2)oc2cc(O)cc(O)c12 [luteolin] |
| 26.2 | O=C(O)C=Cc1cccc(O)c1 [m-coumaric acid] |
| 2.11 | O=C(O)CC(=O)O [malonic acid] |
| 24.2 | COc1cc(-c2oc3cc(=O)cc(O)c-3cc2OC2OC(CO)C(O)C(O)C2O)cc(OC)c1O (configuration not stated) [malvidin-3-galactoside] |
| 1.38 | OCC(O)C(O)C(O)C(O)CO (configuration not stated) [mannitol] |
| 59.2 | CCCCCCCCCCCCCCCCCCCC(=O)OC [methyl arachidate] |
| 61.2 | CCCCCCCCCCCCCCCCCCCCCC(=O)OC [methyl behenate] |
| 44.2 | CCCCCCCC(=O)OC [methyl caprylate] |
| 57.1 | CCCCCCCCCCCCCCCCC(=O)OC [methyl heptadecanoate] |
| 56.5 | CCCCCCCCC=CCCCCCCCC(=O)OC [methyl oleate] |
| 54.9 | CCCCCCC=CCCCCCCCC(=O)OC [methyl palmitoleate] |

| LC retention time [min] | Structure (SMILES) |
| --- | --- |
| 57.8 | CCCCCCCCCCCCCCCCCC(=O)OC [methyl stearate] |
| 33.8 | COC(=O)CCS [methyl-3-mercaptoproprionate] |
| 2.4 | COC1OC(C(=O)O)C(O)C(O)C1O (configuration not stated) [methyl-glucuronide] |
| 31.9 | O=c1c(O)c(-c2ccc(O)cc2O)oc2cc(O)cc(O)c12 [morin] |
| 1.4 | C1COCCN1 [morpholine] |
| 1.3 | O=C(O)C(O)C(O)C(O)C(O)C(=O)O (configuration not stated) [mucic acid] |
| 1.22 | OC1C(O)C(O)C(O)C(O)C1O (configuration not stated) [myo-inositol] |
| 36.1 | CCCCCCC(=O)O [n-heptanoic acid] |
| 28.6 | CC1OC(OC2C(Oc3cc(O)c4c(c3)OC(c3ccc(O)cc3)CC4=O)OC(CO)C(O)C2O)C(O)C(O)C1O (configuration not stated) [naringin] |
| 4.64 | CN1CCCC1c1cccnc1 (configuration not stated) [nicotine] |
| 43.1 | CCCCCCCCC(=O)O [nonanoic acid] |
| 28.1 | O=C(O)C=Cc1ccccc1O [o-coumaric acid] |
| 40 | CCCCCCCC(=O)O [octanoic acid] |
| 37.6 | CCCCCCCCOC1OC(CO)C(O)C(O)C1O (configuration not stated) [octyl glucopyranoside] |
| 27.6 | CCCCCCCCN [octylamine] |
| 33.2 | COc1cc(-c2oc3cc(=O)cc4oc(O)cc(c2OC2OC(CO)C(O)C(O)C2O)c43)cc(OC)c1O (configuration not stated) [oxovitisin A] |
| 25.9 | Oc1ccc(C2c3c(O)cc(O)cc3C3C(c4ccc(O)cc4)c4c(O)cc(O)cc4C23)cc1 (configuration not stated) [pallidol] |
| 54.4 | CCCCCCCCCCCCCCCC(=O)O [palmitic acid] |
| 19.6 | OCC1OC(Oc2cc3c(OC4OC(CO)C(O)C(O)C4O)cc(O)cc3[o+]c2-c2ccc(O)cc2)C(O)C(O)C1O (configuration not stated) [pelargonidin-3,5-diglucoside] |
| 23.7 | OCC1OC(Oc2cc3c(O)cc(O)cc3[o+]c2-c2ccc(O)cc2)C(O)C(O)C1O (configuration not stated) [pelargonidin-3-glucoside] |
| 28.3 | O=c1c(OC2OC(COC3OCC(O)C(O)C3O)C(O)C(O)C2O)c(-c2ccc(O)c(O)c2)oc2cc(O)cc(O)c12 (configuration not stated) [peltatoside] |
| 33 | COc1cc(-c2oc3cc(=O)cc(O)c-3cc2OC2OC(COC(=O)C=Cc3ccc(O)cc3)C(O)C(O)C2O)ccc1O (configuration not stated) [peonidin-3-O-(6-p-coumaroyl)-glucoside] |
| 29.7 | COc1cc(-c2[o+]c3cc(O)cc(O)c3cc2O)cc(O)c1O [petunidin] |

More lines, now with the values behind:

| Structure (SMILES) | LC retention time [min] |
| --- | --- |
| Oc1ccc(C2Oc3cc(O)cc4c3C2c2cc(O)cc(O)c2C(c2ccc(O)cc2)C4C2c3cc(O)cc4c3C(c3cc(O)cc(O)c3C2c2ccc(O)cc2)C(c2ccc(O)cc2)O4)cc1 (configuration not stated) [isohopeaphenol] | 25.9 |
| COc1cc(C=Cc2cc(O)cc(OC3OC(CO)C(O)C(O)C3O)c2)ccc1O (configuration not stated) [isorhapontin] | 26.1 |
| O=C(O)C1OC(Oc2c(-c3ccc(O)cc3)oc3cc(O)cc(O)c3c2=O)C(O)C(O)C1O (configuration not stated) [kaempferol 3-O-glucuronide] | 30.7 |
| O=c1c(OC2OC(CO)C(O)C(O)C2O)c(-c2ccc(O)cc2)oc2cc(O)cc(O)c12 (configuration not stated) [kaempferol 3-glucoside] | 31.2 |
| CC(O)C(=O)O (configuration not stated) [lactic acid] | 2.51 |
| CCC=CCC=CCC=CCCCCCCCC(=O)O [linolenic acid] | 52.3 |
| C=C(C)C1CCC2(C)CCC3(C)C(CCC4C5(C)CCC(O)C(C)(C)C5CCC43C)C12 (configuration not stated) [lupeol] | 60 |
| O=c1cc(-c2ccc(O)c(O)c2)oc2cc(OC3OC(CO)C(O)C(O)C3O)cc(O)c12 (configuration not stated) [luteolin 7-glucoside] | 28.1 |
| COc1cc(-c2oc3cc(=O)cc(OC4OC(CO)C(O)C(O)C4O)c-3cc2OC2OC(CO)C(O)C(O)C2O)cc(OC)c1O (configuration not stated) [malvidin-3,5-diglucoside] | 20.7 |
| OCC1OC(OCC2OC(O)C(O)C(O)C2O)C(O)C(O)C1O (configuration not stated) [melibiose] | 1.4 |
| CCCCCCCC/C=C\CCCCCCCCCC(=O)OC [methyl cis-11-eicosenoate] | 57.9 |
| COC(=O)c1cc(O)c(O)c(O)c1 [methyl gallate] | 18.2 |
| CCC=CCC1C(=O)CCC1CC(=O)OC (configuration not stated) [methyl jasmonate] | 38.4 |
| CCC=CCC=CCC=CCCCCCCCC(=O)OC [methyl linolenate] | 54.5 |
| CCCCCCCCCCCCCC(=O)OC [methyl myristate] | 54.4 |
| CCCCCCCCCCCCCCCCCCC(=O)OC [methyl nonadecanoate] | 58.5 |
| CCCCCCCCCCCCCCCC(=O)OC [methyl palmitate] | 56.4 |
| COc1cc(-c2oc3cc(=O)cc4oc(C)cc(c2OC2OC(CO)C(O)C(O)C2O)c43)cc(OC)c1O (configuration not stated) [methylpyrano malvidin 3-glucoside] | 28.6 |

| Structure (SMILES) | LC retention time [min] |
| --- | --- |
| COC(=O)c1ccccc1O [methylsalicylate ester] | 34.5 |
| O=C1CC(c2ccc(O)cc2)Oc2cc(OC3OC(CO)C(O)C(O)C3O)cc(O)c21 (configuration not stated) [naringenin 7-glucoside] | 27.9 |
| O=C1CC(c2ccc(O)cc2)Oc2cc(O)cc(O)c21 (configuration not stated) [naringenin] | 33.8 |
| NC(=O)c1cccnc1 [nicotinamide] | 3.79 |
| Nc1ncnc2c1ncn2C1OC(COP(=O)(O)OP(=O)(O)OCC2OC([n+]3cccc(C(=O)O)c3)C(O)C2O)C(O)C1O (configuration not stated) [nicotinic acid adenin dinucleotide] | 8.3 |
| O=C(O)c1ccc[n+](C2OC(COP(=O)([O-])O)C(O)C2O)c1 (configuration not stated) [nicotinic acid mononucleotide] | 2.1 |
| O=C(O)c1cccnc1 [nicotinic acid] | 2.98 |
| CCCCCCCCC=CCCCCCCCC(=O)O [oleic acid] | 54.9 |
| O=c1cc(-c2ccc(O)c(O)c2)oc2c(C3OC(CO)C(O)C(O)C3O)c(O)cc(O)c12 (configuration not stated) [orientin] | 25.5 |
| O=C(O)C(=O)O [oxalic acid] | 1.3 |
| O=C(O)/C=C/c1ccc(O)cc1 [p-coumaric acid] | 24.3 |
| COc1cc(-c2[o+]c3cc(O)cc(OC4OC(CO)C(O)C(O)C4O)c3cc2OC2OC(CO)C(O)C(O)C2O)ccc1O (configuration not stated) [peonidin 3,5 diglucoside] | 20.2 |
| COc1cc(-c2[o+]c3cc(O)cc(O)c3cc2OC2OC(CO)C(O)C(O)C2O)ccc1O (configuration not stated) [peonidin 3-galactoside] | 24 |
| COc1cc(-c2[o+]c3cc(O)cc(O)c3cc2OC2OCC(O)C(O)C2O)ccc1O (configuration not stated) [peonidin-3-arabinoside] | 24.8 |
| COc1cc(-c2[o+]c3cc(O)cc(O)c3cc2OC2OC(CO)C(O)C(O)C2O)cc(O)c1O (configuration not stated) [petunidin-3-glucoside] | 22.9 |
| NCCc1ccccc1 [phenethylamine] | 12.1 |
| O=C(CCc1ccc(O)cc1)c1c(O)cc(O)cc1OC1OC(CO)C(O)C(O)C1O (configuration not stated) [phloridzin] | 29.6 |
